Measured values reported in ChEMBL document CHEMBL3588815, “Distinct Temporal Fingerprint for Cyclic Adenosine Monophosphate (cAMP) Signaling of Indole-2-carboxamides as Allosteric Modulators of the Cannabinoid Receptors” (J Med Chem, 2015).
Activity calls are given as the source filed them. The rule behind the calls is not given here.

Experiments:
Cannabinoid receptor 1 [1] = biological target: T1, Cannabinoid receptor 1 (Homo sapiens, UniProt P21554); assay: Activity at hemagglutinin-tagged human CB1 receptor expressed in HEK293 cells assessed as effect on forskolin-induced cAMP accumulation in presence of CP55,940 by cAMP BRET assay; format: functional, cell-based
T1 sequence (P21554 whole entry): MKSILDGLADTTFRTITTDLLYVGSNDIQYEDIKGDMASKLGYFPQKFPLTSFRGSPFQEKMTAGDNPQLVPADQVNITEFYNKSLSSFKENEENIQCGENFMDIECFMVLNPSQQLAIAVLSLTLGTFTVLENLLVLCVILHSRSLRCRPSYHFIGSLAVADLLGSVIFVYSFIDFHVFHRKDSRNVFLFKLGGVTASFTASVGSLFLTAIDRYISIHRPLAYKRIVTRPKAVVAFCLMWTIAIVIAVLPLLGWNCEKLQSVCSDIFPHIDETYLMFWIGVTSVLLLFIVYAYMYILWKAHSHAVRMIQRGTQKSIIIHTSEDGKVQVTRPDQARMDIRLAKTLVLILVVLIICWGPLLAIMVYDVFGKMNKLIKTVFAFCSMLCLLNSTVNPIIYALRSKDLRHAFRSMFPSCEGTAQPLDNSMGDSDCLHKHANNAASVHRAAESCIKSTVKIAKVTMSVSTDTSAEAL

Cannabinoid receptor 1 [2] = biological target: T1, Cannabinoid receptor 1; assay: Activity at hemagglutinin-tagged human CB1 receptor expressed in HEK293 cells assessed as effect on forskolin-induced cAMP accumulation after 5 mins in presence of CP55,940 by cAMP BRET assay; format: functional, cell-based
Cannabinoid receptor 1 [3] = biological target: T1, Cannabinoid receptor 1; assay: Activity at hemagglutinin-tagged human CB1 receptor expressed in HEK293 cells assessed as effect on forskolin-induced cAMP accumulation after 10 mins in presence of CP55,940 by cAMP BRET assay; format: functional, cell-based
Cannabinoid receptor 1 [4] = biological target: T1, Cannabinoid receptor 1; assay: Activity at hemagglutinin-tagged human CB1 receptor expressed in HEK293 cells assessed as effect on forskolin-induced cAMP accumulation after 15 mins in presence of CP55,940 by cAMP BRET assay; format: functional, cell-based
Cannabinoid receptor 1 [5] = biological target: T1, Cannabinoid receptor 1; assay: Allosteric modulator activity at hemagglutinin-tagged human CB1 receptor expressed in HEK293 cells assessed as effect on CP55,940-induced inhibition of forskolin-induced cAMP accumulation by kinetic cAMP assay; format: functional, cell-based
Cannabinoid receptor 1 [6] = biological target: T1, Cannabinoid receptor 1; assay: Allosteric agonist activity at hemagglutinin-tagged human CB1 receptor expressed in HEK293 cells assessed as effect on forskolin-induced cAMP accumulation at 10 uM by kinetic cAMP assay; format: functional, cell-based
Cannabinoid receptor 2 [7] = biological target: T2, Cannabinoid receptor 2 (Homo sapiens, UniProt P34972); assay: Allosteric modulator activity at hemagglutinin-tagged human CB2 receptor expressed in Flp-In-293 cells assessed as effect on CP55,940-induced inhibition of forskolin-induced cAMP accumulation by kinetic cAMP assay; format: functional, cell-based
T2 sequence (P34972 whole entry): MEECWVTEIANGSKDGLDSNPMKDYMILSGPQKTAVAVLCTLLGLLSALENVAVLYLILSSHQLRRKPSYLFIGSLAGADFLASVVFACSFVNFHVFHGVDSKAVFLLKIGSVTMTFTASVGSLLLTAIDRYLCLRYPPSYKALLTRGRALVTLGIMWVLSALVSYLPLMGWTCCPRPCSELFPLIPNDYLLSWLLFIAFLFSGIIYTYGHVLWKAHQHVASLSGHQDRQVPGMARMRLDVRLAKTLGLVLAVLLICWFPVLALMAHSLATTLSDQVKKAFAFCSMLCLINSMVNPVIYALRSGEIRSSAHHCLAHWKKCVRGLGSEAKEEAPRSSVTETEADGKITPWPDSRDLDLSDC

Cannabinoid receptor 2 [8] = biological target: T2, Cannabinoid receptor 2; assay: Allosteric agonist activity at hemagglutinin-tagged human CB2 receptor expressed in HEK293 cells assessed as effect on forskolin-induced cAMP accumulation at 10 uM by kinetic cAMP assay; format: functional, cell-based
Cannabinoid receptor 1 [9] = biological target: T1, Cannabinoid receptor 1; assay: Inverse agonist activity at hemagglutinin-tagged human CB1 receptor expressed in HEK293 cells assessed as effect on forskolin-induced cAMP accumulation after 5 to 15 mins in presence of CP55,940 by cAMP BRET assay; format: functional, cell-based
Cannabinoid receptor 1 [10] = biological target: T1, Cannabinoid receptor 1; assay: Activity at human CB1 receptor expressed in AtT20 cells assessed as effect on 1 uM CP55,940-induced peak hyperpolarization up to 10 uM by membrane potential assay; format: cell-based
Cannabinoid receptor 1 [11] = biological target: T1, Cannabinoid receptor 1; assay: Activity at human CB1 receptor expressed in AtT20 cells assessed as increase in rate of repolarization at 0.1 to 10 uM in presence of 1 uM CP55,940 by membrane potential assay; format: cell-based
Cannabinoid receptor 1 [12] = biological target: T1, Cannabinoid receptor 1; assay: Slow antagonist/Inverse agonist activity at hemagglutinin-tagged human CB1 receptor expressed in HEK293 cells assessed as reversal of 1 uM CP55,940-induced inhibition of 5 uM forskolin-induced cAMP accumulation by kinetic cAMP assay; format: functional, cell-based
Cannabinoid receptor 1 [13] = biological target: T1, Cannabinoid receptor 1; assay: Inverse agonist activity at hemagglutinin-tagged human CB1 receptor expressed in HEK293 cells assessed as increase in forskolin-induced cAMP accumulation in absence of CP55,940 at 10 uM and 31.6 uM by cAMP BRET assay; format: functional, cell-based
Cannabinoid receptor 2 [14] = biological target: T2, Cannabinoid receptor 2; assay: Antagonist activity against hemagglutinin-tagged human CB2 receptor expressed in HEK293 cells assessed as suppression of CP55,940-induced inhibition of forskolin-induced cAMP accumulation by cAMP BRET assay; format: functional, cell-based
Cannabinoid receptor 1 [15] = biological target: T1, Cannabinoid receptor 1; assay: Inverse agonist activity at hemagglutinin-tagged human CB1 receptor expressed in HEK293 cells assessed as increase in forskolin-induced cAMP accumulation in absence of CP55,940 at 31.6 uM by cAMP BRET assay; format: functional, cell-based
Cannabinoid receptor 2 [16] = biological target: T2, Cannabinoid receptor 2; assay: Activity at hemagglutinin-tagged human CB2 receptor expressed in HEK293 cells assessed as increase in forskolin-induced cAMP accumulation in absence of CP55,940 by cAMP BRET assay; format: functional, cell-based
Cannabinoid receptor 2 [17] = biological target: T2, Cannabinoid receptor 2; assay: Activity at hemagglutinin-tagged human CB2 receptor expressed in HEK293 cells assessed as inhibition of forskolin-induced cAMP accumulation in absence of CP55,940 by cAMP BRET assay; format: functional, cell-based
HEK293 = assay: Reduction in cAMP accumulation in HEK293 cells by kinetic cAMP assay; format: ADME, cell-based; details: human

EC50 (Cannabinoid receptor 1 [1]; hek293) [nM]	EC50 (Cannabinoid receptor 1 [2]) [nM]	EC50 (Cannabinoid receptor 1 [3]; hek293) [nM]	EC50 (Cannabinoid receptor 1 [4]) [nM]	Activity (Cannabinoid receptor 1 [5])	Activity (Cannabinoid receptor 1 [6])	Activity (Cannabinoid receptor 2 [7])	Activity (Cannabinoid receptor 2 [8])	EC50 (Cannabinoid receptor 1 [1]) [nM]	EC50 (Cannabinoid receptor 1 [3]) [nM]	Activity (Cannabinoid receptor 1 [9])	Activity (Cannabinoid receptor 1 [10])	Activity (Cannabinoid receptor 1 [11])	inhibition (Cannabinoid receptor 1 [12])	Activity (Cannabinoid receptor 1 [13])	Activity (Cannabinoid receptor 1 [15])	Activity (Cannabinoid receptor 2 [16])	EC50 (Cannabinoid receptor 2 [17]) [nM]	Structure (SMILES)	inhibition (Cannabinoid receptor 2 [14])	Activity (HEK293)
< 10000	< 10000	< 10000	< 10000	Active	inactive	inactive	inactive	–	–	–	–	–	–	–	–	–	–	CCc1c(C(=O)OCCc2ccc(NC)cc2)[nH]c2ccc(Cl)cc12	–	–
–	8180	–	20000	Active	inactive	inactive	inactive	3420	1840	Active	inactive	Active	–	–	–	–	–	CCc1c(C(=O)NCCc2ccc(Cl)cc2)[nH]c2ccc(Cl)cc12	–	–
–	–	–	–	Active	inactive	inactive	inactive	–	–	–	–	–	–	–	–	–	–	O=C(NCCc1ccc([N+](=O)[O-])cc1)c1cc2cc(Cl)ccc2[nH]1	–	–
–	3430	–	210	Active	Active	inactive	inactive	600	430	Active	–	–	Active	Active	–	–	–	CCc1c(C(=O)NCCc2ccc(N(C)C)cc2)[nH]c2ccc(Cl)cc12	–	–
–	7370	–	8960	Active	inactive	inactive	inactive	4990	4580	Active	–	–	–	–	–	–	–	CCc1c(C(=O)NCCc2ccc(F)cc2)[nH]c2ccc(Cl)cc12	–	–
–	6840	–	3550	Active	Active	inactive	Active	4010	2990	Active	inactive	Active	–	–	Active	Active	–	CCc1c(C(=O)NCCc2ccc(N3CCCCC3)cc2)[nH]c2ccccc12	–	–
–	1010	–	470	Active	inactive	inactive	inactive	790	600	Active	inactive	Active	–	–	–	–	–	CCc1c(C(=O)NCCc2ccc(C)cc2)[nH]c2ccc(Cl)cc12	–	–
–	–	–	–	inactive	inactive	inactive	inactive	–	–	–	–	–	Active	–	–	–	–	CCc1c(C(=O)NCCc2ccc(N3CCCC3)cc2)[nH]c2ccc(Cl)cc12	–	–
–	–	–	–	inactive	inactive	inactive	Active	–	–	–	–	–	–	–	–	–	130	CCc1c(C(=O)OCCc2ccc(N3CCCCC3)cc2)[nH]c2ccc(Cl)cc12	–	–
–	–	–	–	inactive	Active	Active	Active	–	–	–	–	–	–	–	–	–	–	CCc1c(C(=O)NCCc2ccc(N)cc2)[nH]c2ccc(Cl)cc12	–	Toxic
–	13400	–	1510	Active	Active	inactive	inactive	2660	2970	Active	–	–	–	Active	–	–	–	CC(O)c1c(C(=O)NCCc2ccc(N3CCCCC3)cc2)[nH]c2ccc(Cl)cc12 (centres undefined)	–	–
–	10600	–	640	Active	Active	inactive	inactive	2240	2090	Active	inactive	Active	–	Active	–	–	–	CCc1c(C(=O)NCCc2ccc(N3CCCCC3)cc2)[nH]c2ccc(Cl)cc12	–	–

Structure (SMILES)	EC50 (Cannabinoid receptor 1 [1]; hek293) [nM]	EC50 (Cannabinoid receptor 1 [2]) [nM]	EC50 (Cannabinoid receptor 1 [3]; hek293) [nM]	EC50 (Cannabinoid receptor 1 [4]) [nM]	Activity (Cannabinoid receptor 1 [5])	Activity (Cannabinoid receptor 1 [6])	Activity (Cannabinoid receptor 2 [7])	Activity (Cannabinoid receptor 2 [8])	EC50 (Cannabinoid receptor 1 [1]) [nM]	EC50 (Cannabinoid receptor 1 [3]) [nM]	Activity (Cannabinoid receptor 1 [9])	Activity (Cannabinoid receptor 1 [10])	Activity (Cannabinoid receptor 1 [11])	inhibition (Cannabinoid receptor 1 [12])	Activity (Cannabinoid receptor 1 [13])	Activity (Cannabinoid receptor 1 [15])	Activity (Cannabinoid receptor 2 [16])	EC50 (Cannabinoid receptor 2 [17]) [nM]	inhibition (Cannabinoid receptor 2 [14])	Activity (HEK293)
CCc1c(C(=O)NCCc2ccc([N+](=O)[O-])cc2)[nH]c2ccc(Cl)cc12	–	3590	–	440	Active	Active	Active	inactive	1140	660	Active	–	–	Active	Active	–	–	–	Active	–
O=C(NCCc1ccc(N2CCCCC2)cc1)c1cc2cc(Cl)ccc2[nH]1	–	–	–	–	inactive	inactive	inactive	inactive	–	–	–	–	–	–	–	–	–	–	–	–
O=C(NCCc1ccc(Cl)cc1)c1cc2cc(Cl)ccc2[nH]1	–	–	–	–	inactive	inactive	inactive	inactive	–	–	–	–	–	–	–	–	–	–	–	–
